The target of assay [1] is T1, acyl-coenzyme A:cholesterol acyltransferase (ACAT) (Oryctolagus cuniculus, UniProt G1SFD9).
T1 sequence (G1SFD9 1-524): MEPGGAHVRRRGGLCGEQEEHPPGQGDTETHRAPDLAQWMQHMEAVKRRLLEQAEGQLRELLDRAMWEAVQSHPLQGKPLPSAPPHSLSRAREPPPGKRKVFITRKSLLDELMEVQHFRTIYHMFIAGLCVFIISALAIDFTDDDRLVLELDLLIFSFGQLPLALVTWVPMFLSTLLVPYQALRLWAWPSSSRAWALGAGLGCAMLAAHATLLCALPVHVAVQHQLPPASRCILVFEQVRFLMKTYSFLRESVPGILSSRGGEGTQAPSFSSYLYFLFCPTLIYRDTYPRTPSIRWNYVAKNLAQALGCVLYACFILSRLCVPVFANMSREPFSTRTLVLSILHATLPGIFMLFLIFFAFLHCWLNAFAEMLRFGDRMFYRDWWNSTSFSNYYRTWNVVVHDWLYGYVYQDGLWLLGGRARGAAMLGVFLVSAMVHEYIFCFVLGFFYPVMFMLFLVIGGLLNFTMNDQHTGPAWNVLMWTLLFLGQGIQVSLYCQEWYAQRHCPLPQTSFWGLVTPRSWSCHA
Nature of the assay: In vitro ACAT inhibition (radiolabeled cholesterol oleate formation from oleic acid, rabbit intestinal microsomes). Format: biochemical.
Protocol: The ability of representative compounds of the present invention to inhibit ACAT was measured using an in vitro test more fully described by F. J. Field and R. G. Salone, in Biochemica et Biophysica 712:557-570 (1982). The test assesses the ability of a test compound to inhibit the acylation of cholesterol by oleic acid by measuring the amount of radio-labeled cholesterol oleate formed from radiolabeled oleic acid in a tissue preparation containing rabbit intestinal microsomes.

The nature of assay [2]: APCC in vivo screen: blood cholesterol in cholesterol-fed rats. The settings on record: Rattus norvegicus, 192 h, oral, chow diet with peanut oil 5.5%, cholesterol 1.5%, cholic acid 0.5%, blood sampled next day 8 AM, read-out: % Change (mg/dl). More on the design: species or system male Sprague-Dawley rats. As for the experimental part:
In one in vivo screen designated APCC, male Sprague-Dawley rats (200 to 225 g) were randomly divided into treatment groups and dosed orally at 4 PM with either vehicle (CMC/Tween) or suspensions of test compounds in vehicle. The control group received vehicle alone. […] The next day the animals were sacrificed at 8 AM to obtain blood samples for cholesterol analysis using standard procedures. Statistical differences between mean cholesterol values for the same vehicle were determined using analysis of variance followed by Fisher's least significant test. […] The figure in parenthesis indicates the number of milligrams/kilogram of test compound administered.

The structures appear in SMILES notation.

As a reminder, the IC50 is the concentration at which inhibition is half-maximal. A low value points to greater potency.

Consider `Cc1csc(NC(=O)Nc2c(C(C)C)cccc2C(C)C)n1` [Example 6, N-[2,6-bis(1-methylethyl)phenyl]-N'-(4-methyl-2-thiazolyl)urea], for which, in assay [1], the IC50 is > 5000 nM.
Turning to `CCCCCCCCCCCn1nccc1NC(=O)Nc1c(C(C)C)cccc1C(C)C` [Example 23, N-[2,6-bis(1-methylethyl)phenyl]-N'-(1-undecyl-1H-pyrazol-5-yl)urea], 35 nM corresponded to half-maximal inhibition in assay [1] (IC50). In addition, in assay [2], the change in vivo at 3 mg/kg was found to be 5% and the change in vivo at 30 mg/kg was -64%.
Take `CCCCCCc1csc(NC(=O)Nc2c(C(C)C)cccc2C(C)C)n1` [Example 4, N-[2,6-bis(1-methylethyl)phenyl]-N'-(4-hexyl-2-thiazolyl)urea]: the IC50 in assay [1] is 1600 nM. In assay [2], the change in vivo at 30 mg/kg is 4%.
Take `CCCCCCCCCCCCCCc1cc(NC(=O)Nc2c(C(C)C)cccc2C(C)C)no1` [Example 17, N-[2,6-bis(1-methylethyl)phenyl]-N'-(5-tetradecyl-3-isoxazolyl)urea]: the 50% inhibitory concentration (IC50) in assay [1] worked out at 110 nM. Further, in assay [2], the change in vivo at 3 mg/kg is -47% and the change in vivo at 30 mg/kg is -58%.
For `CCCCCCCCCCCc1cc(NC(=O)Nc2c(C(C)C)cccc2C(C)C)no1` [Example 15, N-[2,6-bis(1-methylethyl)phenyl]-N'-(5-undecyl-3-isoxazolyl)urea], the IC50 in assay [1] was 27 nM. Also, in assay [2], the change in vivo at 3 mg/kg was -51% and the change in vivo at 30 mg/kg is -61%.
In the case of `CCCCCCCCCCCCCCc1cc(NC(=O)Nc2c(C(C)C)cccc2C(C)C)on1` [Example 13, N-[2,6-bis(1-methylethyl)phenyl]-N'-(3-tetradecyl-5-isoxazolyl)urea], in assay [2], the change in vivo at 3 mg/kg was -44% and the change in vivo at 30 mg/kg was -64%.
The compound `CCCCCCCCCCCCc1cc(NC(=O)Nc2c(C(C)C)cccc2C(C)C)n(-c2ccccn2)n1` [Example 24, N-[2,6-bis(1-methylethyl)phenyl]-N'-[3-dodecyl-1-(2-pyridyl)-1H-pyrazol-5-yl]urea] yielded an IC50 in assay [1] of 100 nM. In assay [2], the change in vivo at 30 mg/kg stood at 9%.
`CCCCCCCCCCc1cc(NC(=O)Nc2c(C(C)C)cccc2C(C)C)on1` [Example 10, N-[2,6-bis(1-methylethyl)phenyl]-N'-(3-decyl-5-isoxazolyl)urea]: in assay [2], the change in vivo at 3 mg/kg is -61% and the change in vivo at 30 mg/kg was -69%.
With `Cc1cc(NC(=O)Nc2c(C(C)C)cccc2C(C)C)no1` [Example 18, N-[2,6-bis(1 methylethyl)phenyl]-N'-(5-methyl-3-isoxazolyl)urea], in assay [1], the IC50 was > 5000 nM.
Consider `CCCCCCCCCCCCc1cc(NC(=O)Nc2c(C(C)C)cccc2C(C)C)on1` [Example 8, N-[2,6-bis(1-methylethyl)phenyl]-N'-(3-dodecyl-5-isoxazolyl)urea], for which, in assay [2], the change in vivo at 3 mg/kg is -58% and the change in vivo at 30 mg/kg is -61%.
As to `CC(C)c1cccc(C(C)C)c1NC(=O)Nc1nc(-c2ccccc2)cs1` [Example 5, N-[2,6-bis(1-methylethyl)phenyl]-N'-(4-phenyl-2-thiazolyl)urea], the IC50 in assay [1] is > 5000 nM.
Take `CCCCCCCCCCCCCc1cc(NC(=O)Nc2c(C(C)C)cccc2C(C)C)on1` [Example 12, N-[2,6-bis(1-methylethyl)phenyl]-N'-(3-tridecyl-5-isoxazolyl)urea]: in assay [2], the change in vivo at 3 mg/kg was -51% and the change in vivo at 30 mg/kg is -62%.
For `CCCCCCCCCCCCCc1cc(NC(=O)Nc2c(C(C)C)cccc2C(C)C)no1` [Example 16, N-[2,6-bis(1-methylethyl)phenyl]-N'-(5-tridecyl-3-isoxazolyl)urea], in that order: -59% and -62%.
Compound `CCCCN(CCCC)Cc1cc(NC(=O)Nc2c(C(C)C)cccc2C(C)C)no1` [Example 19, N-[2,6-bis(1-methylethyl)phenyl]-N'-[5-[(dibutylamino)methyl]-3-isoxazolyl]urea] registered a concentration for half-maximal inhibition (IC50) in assay [1] of 510 nM. Also, in assay [2], the change in vivo at 3 mg/kg was -33% and the change in vivo at 30 mg/kg is -50%.
In assay [1], `CCCCN(CCCC)Cc1cc(NC(=O)Nc2c(C(C)C)cccc2C(C)C)n(Cc2ccccc2)n1` [Example 22, N-[2,6-bis(1-methylethyl)phenyl]-N'-[3-[(dibutylamino)methyl]-1-(phenylmethyl)-1H-pyrazol-5-yl]urea] registered an IC50 of 1900 nM. In addition, in assay [2], the change in vivo at 30 mg/kg was -9%.
Regarding `CCCCCCCCCCCc1cc(NC(=O)Nc2c(C(C)C)cccc2C(C)C)on1` [Example 11, N-[2,6-bis(1-methylethyl)phenyl]-N'-(3-undecyl-5-isoxazolyl)urea], in assay [1], the IC50 came out at 20 nM. Moreover, in assay [2], the change in vivo at 3 mg/kg is -67% and the change in vivo at 30 mg/kg is -70%.
For `CCCCCCCCCCCCc1cc(NC(=O)Nc2c(C(C)C)cccc2C(C)C)no1` [Example 9, N-[2,6-bis(1-methylethyl)phenyl]-N'-(5-dodecyl-3-isoxazolyl)urea], the IC50 in assay [1] came out at 27 nM. Also, in assay [2], the change in vivo at 3 mg/kg is -54% and the change in vivo at 30 mg/kg was -67%.
The compound `CCCCCc1sc(NC(=O)Nc2c(C(C)C)cccc2C(C)C)nc1C` [Example 3, N-[2,6-bis(1-methylethyl)phenyl]-N-(5-pentyl-4-methyl-2-thiazolyl)urea] registered an IC50 in assay [1] of 1900 nM. Further, in assay [2], the change in vivo at 30 mg/kg was -17%.
Regarding `CCCCCCCCCCc1cc(NC(=O)Nc2c(C(C)C)cccc2C(C)C)no1` [Example 14], in assay [1], the IC50 stood at 28 nM. Besides, in assay [2], the change in vivo at 3 mg/kg was -29% and the change in vivo at 30 mg/kg was -62%.
On to `CCCCCCCCCCc1sc(NC(=O)Nc2c(C(C)C)cccc2C(C)C)nc1C` [Example 1, N-[2,6-bis(1-methylethyl)phenyl]-N'-(5-decyl-4-methyl-2-thiazolyl)urea], for which the change in vivo at 30 mg/kg in assay [2] is -20%.
With `CCCCCCN(CCCCCC)Cc1cc(NC(=O)Nc2c(C(C)C)cccc2C(C)C)no1` [Example 20, N-[2,6-bis(1-methylethyl)phenyl]-N'-[5-[(dihexylamino)methyl]-3-isoxazolyl]urea], in assay [1], 2700 nM corresponded to half-maximal inhibition (IC50). The change in vivo at 30 mg/kg in assay [2] was -7%.
With `CC(C)c1cccc(C(C)C)c1NC(=O)Nc1nc(C(C)(C)C)cs1` [Example 7, N-[2,6-bis(1-methylethyl)phenyl]-N'-(4-tert-butyl-2-thiazolyl)urea], the IC50 in assay [1] was > 1000 nM.

(Values after patent US5162360A, “2-heteroatom containing urea and thiourea ACAT inhibitors” (Warner-Lambert Company, priority 1991, dated 1992).)
